Test results reported in patent publication US20110028566A1, “COMPOSITIONS AND PRODUCTS CONTAINING CYCLOALIPHATIC DIOL ANTIMICROBIAL AGENTS AND METHODS OF USING THE COMPOSITIONS AND PRODUCTS” (EASTMAN CHEMICAL COMPANY, priority 2009, published 2011).

Legend:
Assay in all cases: Microbial challenge testing in BPW
Assay type in all cases: cell-based
Aspergillus niger = conditions: for Grade code, A. niger, 3 Day / Grade code, A. niger, 13 Day / Grade code, A. niger, 30 Day: BPW, w/v % in label, average of replicates
Method in brief: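 A. niger grown in TSB with 1% dextrose and on SDA at 22° C.±2° C; spores harvested, filtered, adjusted to 1.0×10^8 and checked by hemocytometer.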

Escherichia coli = conditions: for Grade code, E. coli, 3 Day / Grade code, E. coli, 14 Day / Grade code, E. coli, 30 Day: BPW, w/v % in label, average of replicates
Method in brief: (§1)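 Each organism, grown in TSB with 1% dextrose 96 h or more at 35 °C, was inoculated to 10^5–10^6 cfu/mL into BPW (pH 7.0, 1% dextrose) containing test materials at set w/v %. Broth-alone controls were run. Tubes were held 14 days at 35 °C, then at room temperature.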

Aeromonas sp. = conditions: for Grade code, Aeromonas sp, 3 Days / Grade code, Aeromonas sp, 14 Days / Grade code, Aeromonas sp, 30 Days: BPW, w/v % in label, average of replicates
Method in brief: as §1

Pseudomonas aeruginosa = conditions: for Grade code, P. aeruginosa, 3 Days / Grade code, P. aeruginosa, 13 Days / Grade code, P. aeruginosa, 30 Days: BPW, w/v % in label, average of replicates
Method in brief: as §1

[1] = 3 days incubation, listed as 0.5% AB
[2] = 3 days incubation, listed as 1.25% AB
[3] = 3 days incubation, listed as 2.5% AB
[4] = 13 days incubation, listed as 0.5% AB
[5] = 13 days incubation, listed as 1.25% AB
[6] = 13 days incubation, listed as 2.5% AB
[7] = 30 days incubation, listed as 0.5% AB
[8] = 30 days incubation, listed as 1.25% AB
[9] = 30 days incubation, listed as 2.5% AB
[10] = 14 days incubation, listed as 0.5% AB
[11] = 14 days incubation, listed as 1.25% AB
[12] = 14 days incubation, listed as 2.5% AB

OCC1CCC(CO)CC1 (stereo not drawn) [1,4-CHDM, 1,4-cyclohexanedimethanol]
Grade code A. niger (Aspergillus niger; 0.5%, 3 days incubation): 4
Grade code A. niger (Aspergillus niger; 0.5%, 13 days incubation): 4
Grade code A. niger (Aspergillus niger; 0.5%, 30 days incubation): 4
Grade code A. niger (Aspergillus niger; 1.25%, 3 days incubation): 4
Grade code A. niger (Aspergillus niger; 1.25%, 13 days incubation): 4
Grade code A. niger (Aspergillus niger; 1.25%, 30 days incubation): 4
Grade code A. niger (Aspergillus niger; 2.5%, 3 days incubation): 2 (Countable (11 to 100 colonies))
Grade code A. niger (Aspergillus niger; 2.5%, 13 days incubation): 1 (Countable (1 to 10 colonies))
Grade code A. niger (Aspergillus niger; 2.5%, 30 days incubation): 2.3
Grade code, A. niger, 3 Day (Aspergillus niger; [1]): 4
Grade code, A. niger, 3 Day (Aspergillus niger; [2]): 4
Grade code, A. niger, 3 Day (Aspergillus niger; [3]): 2 (Countable (11 to 100 colonies))
Grade code, A. niger, 13 Day (Aspergillus niger; [4]): 4
Grade code, A. niger, 13 Day (Aspergillus niger; [5]): 4
Grade code, A. niger, 13 Day (Aspergillus niger; [6]): 1 (Countable (1 to 10 colonies))
Grade code, A. niger, 30 Day (Aspergillus niger; [7]): 4
Grade code, A. niger, 30 Day (Aspergillus niger; [8]): 4
Grade code, A. niger, 30 Day (Aspergillus niger; [9]): 2.3
Grade code E. coli (Escherichia coli; 0.5%, 3 days incubation): 5 (More than 10,000 colonies estimated (thus >100,000 cfu/mL))
Grade code E. coli (Escherichia coli; 0.5%, 14 days incubation): 4 (1001 to 10,000 colonies (thus 10,000 cfu/mL to 100,000 cfu/mL))
Grade code E. coli (Escherichia coli; 0.5%, 30 days incubation): 4 (1001 to 10,000 colonies (thus 10,000 cfu/mL to 100,000 cfu/mL))
Grade code E. coli (Escherichia coli; 1.25%, 3 days incubation): 4 (1001 to 10,000 colonies (thus 10,000 cfu/mL to 100,000 cfu/mL))
Grade code E. coli (Escherichia coli; 1.25%, 14 days incubation): 4 (1001 to 10,000 colonies (thus 10,000 cfu/mL to 100,000 cfu/mL))
Grade code E. coli (Escherichia coli; 1.25%, 30 days incubation): 4 (1001 to 10,000 colonies (thus 10,000 cfu/mL to 100,000 cfu/mL))
Grade code E. coli (Escherichia coli; 2.5%, 3 days incubation): 3 (101 to 1000 colonies (thus 1000 to 10,000 cfu/mL))
Grade code E. coli (Escherichia coli; 2.5%, 14 days incubation): 2 (52 to 100 colonies counted (thus 520 to 1000 cfu/mL))
Grade code E. coli (Escherichia coli; 2.5%, 30 days incubation): 0 (No growth detected or <1 colony (thus <10 cfu/mL))
Grade code, E. coli, 3 Day (Escherichia coli; [1]): 5 (More than 10,000 colonies estimated (thus >100,000 cfu/mL))
Grade code, E. coli, 3 Day (Escherichia coli; [2]): 4 (1001 to 10,000 colonies (thus 10,000 cfu/mL to 100,000 cfu/mL))
Grade code, E. coli, 3 Day (Escherichia coli; [3]): 3 (101 to 1000 colonies (thus 1000 to 10,000 cfu/mL))
Grade code, E. coli, 14 Day (Escherichia coli; [10]): 4 (1001 to 10,000 colonies (thus 10,000 cfu/mL to 100,000 cfu/mL))
Grade code, E. coli, 14 Day (Escherichia coli; [11]): 4 (1001 to 10,000 colonies (thus 10,000 cfu/mL to 100,000 cfu/mL))
Grade code, E. coli, 14 Day (Escherichia coli; [12]): 2 (52 to 100 colonies counted (thus 520 to 1000 cfu/mL))
Grade code, E. coli, 30 Day (Escherichia coli; [7]): 4 (1001 to 10,000 colonies (thus 10,000 cfu/mL to 100,000 cfu/mL))
Grade code, E. coli, 30 Day (Escherichia coli; [8]): 4 (1001 to 10,000 colonies (thus 10,000 cfu/mL to 100,000 cfu/mL))
Grade code, E. coli, 30 Day (Escherichia coli; [9]): 0 (No growth detected or <1 colony (thus <10 cfu/mL))
Grade code Aeromonas sp (Aeromonas sp.; 0.5%, 3 days incubation): 5 (More than 10,000 colonies estimated (thus >100,000 cfu/mL))
Grade code Aeromonas sp (Aeromonas sp.; 0.5%, 14 days incubation): 4 (1001 to 10,000 colonies (thus 10,000 cfu/mL to 100,000 cfu/mL))
Grade code Aeromonas sp (Aeromonas sp.; 0.5%, 30 days incubation): 4 (1001 to 10,000 colonies (thus 10,000 cfu/mL to 100,000 cfu/mL))
Grade code Aeromonas sp (Aeromonas sp.; 1.25%, 3 days incubation): 4 (1001 to 10,000 colonies (thus 10,000 cfu/mL to 100,000 cfu/mL))
Grade code Aeromonas sp (Aeromonas sp.; 1.25%, 14 days incubation): 3 (101 to 1000 colonies (thus 1000 to 10,000 cfu/mL))
Grade code Aeromonas sp (Aeromonas sp.; 1.25%, 30 days incubation): 2 (52 to 100 colonies counted (thus 520 to 1000 cfu/mL))
Grade code Aeromonas sp (Aeromonas sp.; 2.5%, 3 days incubation): 3 (101 to 1000 colonies (thus 1000 to 10,000 cfu/mL))
Grade code Aeromonas sp (Aeromonas sp.; 2.5%, 14 days incubation): 1 (1 to 51 colonies counted (thus 10 to 510 cfu/mL))
Grade code Aeromonas sp (Aeromonas sp.; 2.5%, 30 days incubation): 0 (No growth detected or <1 colony (thus <10 cfu/mL))
Grade code, Aeromonas sp, 3 Days (Aeromonas sp.; [1]): 5 (More than 10,000 colonies estimated (thus >100,000 cfu/mL))
Grade code, Aeromonas sp, 3 Days (Aeromonas sp.; [2]): 4 (1001 to 10,000 colonies (thus 10,000 cfu/mL to 100,000 cfu/mL))
Grade code, Aeromonas sp, 3 Days (Aeromonas sp.; [3]): 3 (101 to 1000 colonies (thus 1000 to 10,000 cfu/mL))
Grade code, Aeromonas sp, 14 Days (Aeromonas sp.; [10]): 4 (1001 to 10,000 colonies (thus 10,000 cfu/mL to 100,000 cfu/mL))
Grade code, Aeromonas sp, 14 Days (Aeromonas sp.; [11]): 3 (101 to 1000 colonies (thus 1000 to 10,000 cfu/mL))
Grade code, Aeromonas sp, 14 Days (Aeromonas sp.; [12]): 1 (1 to 51 colonies counted (thus 10 to 510 cfu/mL))
Grade code, Aeromonas sp, 30 Days (Aeromonas sp.; [7]): 4 (1001 to 10,000 colonies (thus 10,000 cfu/mL to 100,000 cfu/mL))
Grade code, Aeromonas sp, 30 Days (Aeromonas sp.; [8]): 2 (52 to 100 colonies counted (thus 520 to 1000 cfu/mL))
Grade code, Aeromonas sp, 30 Days (Aeromonas sp.; [9]): 0 (No growth detected or <1 colony (thus <10 cfu/mL))
Grade code P. aeruginosa (Pseudomonas aeruginosa; 0.5%, 3 days incubation): 4 (1001 to 10,000 colonies (thus 10,000 cfu/mL to 100,000 cfu/mL))
Grade code P. aeruginosa (Pseudomonas aeruginosa; 0.5%, 13 days incubation): 4 (1001 to 10,000 colonies (thus 10,000 cfu/mL to 100,000 cfu/mL))
Grade code P. aeruginosa (Pseudomonas aeruginosa; 0.5%, 30 days incubation): 4 (1001 to 10,000 colonies (thus 10,000 cfu/mL to 100,000 cfu/mL))
Grade code P. aeruginosa (Pseudomonas aeruginosa; 1.25%, 3 days incubation): 4 (1001 to 10,000 colonies (thus 10,000 cfu/mL to 100,000 cfu/mL))
Grade code P. aeruginosa (Pseudomonas aeruginosa; 1.25%, 13 days incubation): 3 (101 to 1000 colonies (thus 1000 to 10,000 cfu/mL))
Grade code P. aeruginosa (Pseudomonas aeruginosa; 1.25%, 30 days incubation): 4 (1001 to 10,000 colonies (thus 10,000 cfu/mL to 100,000 cfu/mL))
Grade code P. aeruginosa (Pseudomonas aeruginosa; 2.5%, 3 days incubation): 3 (101 to 1000 colonies (thus 1000 to 10,000 cfu/mL))
Grade code P. aeruginosa (Pseudomonas aeruginosa; 2.5%, 13 days incubation): 2 (52 to 100 colonies counted (thus 520 to 1000 cfu/mL))
Grade code P. aeruginosa (Pseudomonas aeruginosa; 2.5%, 30 days incubation): 0 (No growth detected or <1 colony (thus <10 cfu/mL))
Grade code, P. aeruginosa, 3 Days (Pseudomonas aeruginosa; [1]): 4 (1001 to 10,000 colonies (thus 10,000 cfu/mL to 100,000 cfu/mL))
Grade code, P. aeruginosa, 3 Days (Pseudomonas aeruginosa; [2]): 4 (1001 to 10,000 colonies (thus 10,000 cfu/mL to 100,000 cfu/mL))
Grade code, P. aeruginosa, 3 Days (Pseudomonas aeruginosa; [3]): 3 (101 to 1000 colonies (thus 1000 to 10,000 cfu/mL))
Grade code, P. aeruginosa, 13 Days (Pseudomonas aeruginosa; [4]): 4 (1001 to 10,000 colonies (thus 10,000 cfu/mL to 100,000 cfu/mL))
Grade code, P. aeruginosa, 13 Days (Pseudomonas aeruginosa; [5]): 3 (101 to 1000 colonies (thus 1000 to 10,000 cfu/mL))
Grade code, P. aeruginosa, 13 Days (Pseudomonas aeruginosa; [6]): 2 (52 to 100 colonies counted (thus 520 to 1000 cfu/mL))
Grade code, P. aeruginosa, 30 Days (Pseudomonas aeruginosa; [7]): 4 (1001 to 10,000 colonies (thus 10,000 cfu/mL to 100,000 cfu/mL))
Grade code, P. aeruginosa, 30 Days (Pseudomonas aeruginosa; [8]): 4 (1001 to 10,000 colonies (thus 10,000 cfu/mL to 100,000 cfu/mL))
Grade code, P. aeruginosa, 30 Days (Pseudomonas aeruginosa; [9]): 0 (No growth detected or <1 colony (thus <10 cfu/mL))
